MIC data for one molecule are collected here from patent EP0193283A1, “Thiazoloquinoline derivatives, process for their preparation and compositions containing them” (BEECHAM GROUP PLC, priority 1985, dated 1986).

What all share (format): cell-based
One experiment concerns M. meleagridis 17529. The experiment is described as follows: In vitro antimycoplasmal MIC. As to conditions: Friis' agarose medium or SP4 medium with 0.65% agarose.
In the next experiment the test system is M. hyorhinis ATCC 23234. Put plainly: In vitro antimycoplasmal MIC. As to conditions: Mesomycoplasma hyorhinis, ATCC23234, Friis' agarose medium or SP4 medium with 0.65% agarose.
The test system of a further experiment is S.aureus M12. The experiment is described as follows: Antibacterial MIC on agar. As to conditions: Staphylococcus aureus.
The subject of experiment [1] is M. pneumoniae x vs 9 strains. The experiment is described as follows: In vitro antimycoplasmal MIC. To be noted: Mycoplasmoides pneumoniae, XVS9STRAINS, Friis' agarose medium or SP4 medium with 0.65% agarose.
In a further experiment the test system is M. dispar NCTC 10125. Put plainly: In vitro antimycoplasmal MIC. As to conditions: Friis' agarose medium or SP4 medium with 0.65% agarose.
Experiment [2] deals with M. hyosynoviae ATCC 25591. Put plainly: In vitro antimycoplasmal MIC. To be noted: Friis' agarose medium or SP4 medium with 0.65% agarose.
Another experiment deals with M. synoviae ATCC 25204. The experiment is described as follows: In vitro antimycoplasmal MIC. To be noted: Mycoplasmopsis synoviae, ATCC25204, Friis' agarose medium or SP4 medium with 0.65% agarose.
The next experiment concerns M. gallisepticum S6. The experiment is described as follows: In vitro antimycoplasmal MIC. As to conditions: Mycoplasmoides gallisepticum, Friis' agarose medium or SP4 medium with 0.65% agarose.
Experiment [3] concerns M. hyopneumoniae x 5 strains. Put plainly: In vitro antimycoplasmal MIC. To be noted: Mesomycoplasma hyopneumoniae, X5STRAINS, Friis' agarose medium or SP4 medium with 0.65% agarose.
The subject of another experiment is S.agalactiae SPAI. The experiment is described as follows: Antibacterial MIC on agar. As to conditions: Streptococcus agalactiae.
The subject of another experiment is M. bovis NCTC 10131. Put plainly: microbe, parasite or virus in culture. To be noted: NCTC10131.
The test system of another experiment is M. iowae B11. The experiment is described as follows: In vitro antimycoplasmal MIC. As to conditions: Friis' agarose medium or SP4 medium with 0.65% agarose.
The next experiment has as its system S.dysgalactiae FRO 7A. Put plainly: Antibacterial MIC on agar. As to conditions: Streptococcus dysgalactiae, FRO7A.

Values after ≈ are worked out from the molar mass of the structure shown.

Regarding `CCNCC1CCN(c2cc3c(cc2F)c(=O)c(C(=O)O)c2scc(C)n23)C1` (stereo not shown) [Example 1, 8-[3-[(Ethylamino)methl]-1-pyrrolidinyl]-7-fluoro-1-methyl-5-oxo-5H-thiazolo[3,2-a]-quinoline-4-carboxylic acid], the MIC was 0.025 ng/mL (≈ 0.062 nM) in the experiment with M. meleagridis 17529; 0.05 ng/mL (≈ 0.124 nM) in the experiment with M. hyorhinis ATCC 23234; 120 ng/mL (≈ 297 nM) in the experiment on S.aureus M12; 0.13 ng/mL (≈ 0.322 nM) in experiment [1]; 0.025 ng/mL (≈ 0.062 nM) against M. dispar NCTC 10125; 0.05 ng/mL (≈ 0.124 nM) in experiment [2]. The MIC was determined as 0.1 ng/mL (≈ 0.248 nM) with M. synoviae ATCC 25204; 0.025 ng/mL (≈ 0.062 nM) in the experiment with M. gallisepticum S6; 0.001 ng/mL (≈ 0.00248 nM) in experiment [3]; 1000 ng/mL (≈ 2480 nM) against S.agalactiae SPAI; 0.1 ng/mL (≈ 0.248 nM) in the experiment with M. bovis NCTC 10131; 0.025 ng/mL (≈ 0.062 nM) in the experiment on M. iowae B11. The molecule also gave an MIC with S.dysgalactiae FRO 7A of 500 ng/mL (≈ 1240 nM).
